The values that follow come from patent US11717499B2 (priority 2011, dated 2023).

Series [1] deals with P450-dependent monooxygenase or phase II enzyme activities. Particulars: rat; cited from earlier work.
The conditions of series [2]: rats, cited from earlier work.
For series [3], the system named is IL-1β. The experiment in a line: Immunoblot of IL-1β expression in placental tissue. Particulars: DMA rescued mice vs LPS-triggered PTB mice, p<0.01. The series is classed as in vivo. The source says: (§1) The probe was thoroughly cleaned after each sample.
(§2) Chemifluorescence was detected by exposure to an autoradiography film.
(A western blot detects proteins with antibodies after separation by electrophoresis.)

Series [4] deals with TNF-α. The experiment in a line: Immunoblot of TNF-α expression in placental tissue. The series is classed as in vivo. Particulars: DMA rescued mice vs LPS-triggered PTB mice, p<0.001.
Source text: as §1, §2

Series [5] relates to IL-6. Put plainly: Immunoblot of IL-6 expression in placental tissue. The series is classed as in vivo. Particulars: DMA rescued mice vs LPS-triggered PTB mice, p<0.05.
Source text: as §1, §2

Series [6] has as its system LPS-triggered PTB. Particulars: for Number of pups retained / Number of pups dropped: 50 mg/kg LPS. The protocol:
Mice were then randomly assigned to the control group or one of five treatment groups. […] Additionally, a sixth group of four animals received i.p. injections of 0.5 ml PBS in lieu of LPS at the same time points and served as sham (Table 1).
After the injection at t=10 hours, mice were continually monitored; time of delivery of the first pup and number of pups dropped over time were recorded. […] All mice were sacrificed by carbon dioxide asphyxiation. The mice were autopsied at the end of experiments to confirm pregnancy and to determine the number of pups retained in utero. Placenta and uteri were harvested and stored.

“Also recorded” adds a separate entry of the source. Read-outs that look alike come from different tables or passages of the source. Marks after values point to notes of the source that are not given here.

`CNC(C)=O` [MMA, N-monomethylacetamide]: in series [1], the “Induction of hepatic monooxygenases” value was “did not induce any hepatic monooxygenases”. In addition, the Plasma level result in series [2] (after 24 hours) was “a significant amount of MMA was still present”. In addition, in series [2], the Plasma half life result is listed as “about 2.2 hours”.

For `CC(=O)N(C)C` [DMA, N,N-dimethylacetamide], in series [3], the “IL-1β expression in placentas” value was “significantly reduced; also recorded: suppressed”. Moreover, the “TNF-α expression in placentas” value in series [4] was “suppressed”. The “IL-6 expression in placentas” value in series [5] is given as “suppressed”. Moreover, the “Number of pups retained” value in series [6] (DMA 0.2 mg/kg) is listed as 35; in series [6] (DMA 0.39 mg/kg), 41; in series [6] (DMA 0.78 mg/kg) it was 69; in series [6] (DMA 1.56 mg/kg), 47; in series [6] (DMA 3.1 mg/kg), 52. The “Number of pups dropped” value in series [6] (DMA 0.2 mg/kg, n=47 pups) is reported as 12; in series [6] (DMA 1.56 mg/kg, n=47 pups) it was 0***; in series [6] (DMA 3.1 mg/kg, n=52 pups), 0***. The “Prevention of PTB” value in series [6] (highest doses of DMA, 3.1 and 1.56 mg/kg) is on record as 100%.
